The results in this text go back to ChEMBL document CHEMBL4376803, “Recent Advances in the Exploration of Therapeutic Analogues of Gramicidin S, an Old but Still Potent Antimicrobial Peptide” (J Med Chem, 2019).

In brackets after ≈: the same amount, converted by molar mass. Square brackets hold non-standard residues; d marks the D form. Peptide text beside a SMILES is read from it.

Data set [1] concerns Escherichia coli. In words: Antibacterial activity against Escherichia coli ATCC 25922 after 24 hrs by broth dilution method. It counts as functional. Particulars: ATCC 25922, 24 h. (In broth dilution the organism is exposed to a series of concentrations in liquid medium.)
Data set [2] relates to Pseudomonas aeruginosa. In words: Antibacterial activity against Pseudomonas aeruginosa ATCC 19582 after 24 hrs by broth dilution method. Particulars: ATCC 19582, 24 h. It counts as functional.
The test system of data set [3] is Enterococcus faecalis. Nature of the data set: Antibacterial activity against Enterococcus faecalis 1131 after 24 hrs by broth dilution method. It counts as functional. The following applies: Enterococcus faecalis, 1131, 24 h.
For data set [4], the system named is Staphylococcus aureus. In words: Antibacterial activity against Staphylococcus aureus 7323. The class given is functional.
A short description of data set [5]: Hemolytic activity against RBC (unknown origin) at 100 ul after 4 hrs. It counts as ADME, cell-based, Erythrocyte. Particulars: red blood cells (unknown origin).
The test system of data set [6] is Escherichia coli. Nature of the data set: Antibacterial activity against Escherichia coli NBRC 12734 after overnight incubation by microplate dilution method. It counts as functional.
Data set [7] deals with Pseudomonas aeruginosa. In words: Antibacterial activity against Pseudomonas aeruginosa NBRC 3080 after overnight incubation by microplate dilution method. It counts as functional.
A further data set deals with Bacillus subtilis. Nature of the data set: Antibacterial activity against Bacillus subtilis NBRC 3513 after overnight incubation by microplate dilution method. The class given is functional.
The test system of data set [8] is Staphylococcus aureus. In words: Antibacterial activity against Staphylococcus aureus NBRC 12732 after overnight incubation by microplate dilution method. It counts as functional.
The next data set deals with Priestia megaterium. Nature of the data set: Antibacterial activity against Bacillus megaterium ATCC 19213 after overnight incubation by microplate dilution method. It counts as functional.
Data set [9] can be described thus: Hemolytic activity in sheep RBC incubated for 30 mins. The class given is ADME, cell-based, Ovis aries, Erythrocyte. Particulars: sheep red blood cells.
In data set [10] the test system is Escherichia coli. In words: Antibacterial activity against Escherichia coli K-12 strain W3110 incubated for 20 hrs by liquid microdilution method. The following applies: K-12 substr. W3110, 20 h. The class given is functional.
Data set [11] concerns Staphylococcus aureus. Nature of the data set: Antibacterial activity against Staphylococcus aureus 209P incubated for 20 hrs by liquid microdilution method. The class given is functional.
Data set [12] can be described thus: Haemolytic activity in human erythrocytes incubated for 30 mins. The class given is ADME, cell-based, Erythrocyte.
Data set [13] has as its system Escherichia coli. Nature of the data set: Antibacterial activity against Escherichia coli UB1005 after overnight incubation by microtiter dilution method. It counts as functional.
In data set [14] the test system is Pseudomonas aeruginosa. In words: Antibacterial activity against Pseudomonas aeruginosa H187 after overnight incubation by microtiter dilution method. The class given is functional.
For data set [15], the system named is Enterococcus faecalis. Nature of the data set: Antibacterial activity against Enterococcus faecalis ATCC 29212 after overnight incubation by microtiter dilution method. It counts as functional.
Data set [16] deals with Staphylococcus aureus. Nature of the data set: Antibacterial activity against Staphylococcus aureus K147 after overnight incubation by microtiter dilution method. It counts as functional.
A further data set relates to Candida albicans. Nature of the data set: Antibacterial activity against Candida albicans after overnight incubation by microtiter dilution method. The class given is functional.
A further data set concerns Erythrocyte. In words: Haemolytic activity in human RBC after 4 hrs by visual method. It counts as ADME, cell-based.
The target of another data set is Lipopolysaccharide (LPS). Nature of the data set: Displacement of Dansyl-polymyxin from Pseudomonas aeruginosa LPS by fluorescence method. Particulars: read-out: I50.
Data set [17] in a line: Therapeutic index, ratio of HD100 for hemolytic activity in human RBC to MIC against Escherichia coli UB1005. The class given is toxicity. Particulars: human red blood cells, read-out: TI.
Data set [18] in a line: Therapeutic index, ratio of HD100 for hemolytic activity in human RBC to MIC against Pseudomonas aeruginosa H187. It counts as toxicity. The following applies: human red blood cells, read-out: TI.
Data set [19] is described as follows: Therapeutic index, ratio of HD100 for hemolytic activity in human RBC to MIC against Enterococcus faecalis ATCC 29212. The class given is toxicity. The following applies: human red blood cells, read-out: TI.
Data set [20] can be described thus: Therapeutic index, ratio of HD100 for hemolytic activity in human RBC to MIC against Staphylococcus aureus K147. The class given is toxicity. The following applies: human red blood cells, read-out: TI.

In the case of `CC(C)C[C@@H]1NC(=O)[C@H](CCCN)NC(=O)[C@H](C(C)C)NC(=O)[C@@H]2CCCN2C(=O)[C@@H](Cc2cn(Cc3cccc4ccccc34)nn2)NC(=O)[C@H](CC(C)C)NC(=O)[C@@H](CCCN)NC(=O)[C@H](C(C)C)NC(=O)[C@@H]2CCCN2C(=O)[C@@H](Cc2ccccc2)NC1=O`, the MIC was 64 µg/mL (≈ 50.3 µM) against Escherichia coli [1], greater than 64 µg/mL in the data set with Pseudomonas aeruginosa [2], 4 µg/mL (≈ 3.14 µM) in the data set on Enterococcus faecalis [3] and 4 µg/mL (≈ 3.14 µM) in the data set on Staphylococcus aureus [4]. Also, the 50% haemolytic concentration (HC50) at 4 h in data set [5] was 5 to 10 µg/mL.
For `CC(C)C[C@@H]1NC(=O)[C@H](CCCN)NC(=O)[C@H](C(C)C)NC(=O)[C@@H]2CCCN2C(=O)[C@@H](CCCCN)NC(=O)[C@H](CC(C)C)NC(=O)[C@@H](CCCN)NC(=O)[C@H](C(C)C)NC(=O)[C@@H]2CCCN2C(=O)[C@@H](CCCCN)NC1=O`, the MIC against Escherichia coli [6] came out at 12.5 µg/mL (≈ 11.3 µM); with Pseudomonas aeruginosa [7], 12.5 µg/mL (≈ 11.3 µM); against Bacillus subtilis, 6.25 µg/mL (≈ 5.66 µM); against Staphylococcus aureus [8], 3.13 µg/mL (≈ 2.84 µM); in the data set with Priestia megaterium, 3.13 µg/mL (≈ 2.84 µM). This molecule had an HC50 at 0.5 h in data set [9] of 150 to 200 µg/mL.
In the case of `CC(C)C[C@@H]1NC(=O)[C@H](CCCN)NC(=O)[C@H](C(C)C)NC(=O)[C@@H]2C[C@@H](N)CN2C(=O)[C@@H](Cc2ccccc2)NC(=O)[C@H](CC(C)C)NC(=O)[C@H](CCCN)NC(=O)[C@H](C(C)C)NC(=O)[C@@H]2C[C@@H](N)CN2C(=O)[C@@H](Cc2ccccc2)NC1=O` [listing 1 of 2 here], the MIC was found to be 64 µg/mL (≈ 54.6 µM) against Escherichia coli [10] and 32 µg/mL (≈ 27.3 µM) against Staphylococcus aureus [11].
For the molecule `CC(C)C[C@@H]1NC(=O)[C@H](CCCN)NC(=O)[C@H](C(C)C)NC(=O)[C@@H]2CCCN2C(=O)[C@@H](Cc2c[nH]cn2)NC(=O)[C@H](CC(C)C)NC(=O)[C@@H](CCCN)NC(=O)[C@H](C(C)C)NC(=O)[C@@H]2CCCN2C(=O)[C@@H](Cc2ccccc2)NC1=O`, the minimal inhibitory concentration (MIC) against Escherichia coli [1] was 8 µg/mL (≈ 7.07 µM); against Pseudomonas aeruginosa [2], 16 µg/mL (≈ 14.1 µM); in the data set on Enterococcus faecalis [3], 16 µg/mL (≈ 14.1 µM); in the data set on Staphylococcus aureus [4], 4 µg/mL (≈ 3.54 µM). Besides, the HC50 at 4 h in data set [5] fell in the range of 90 to 110 µg/mL.
Regarding `CC(C)C[C@@H]1NC(=O)[C@H](CCCN)NC(=O)[C@H](C(C)C)NC(=O)[C@H](CCCCN)NC(=O)[C@@H](Cc2ccccc2)NC(=O)[C@H](CC(C)C)NC(=O)[C@@H](CCCN)NC(=O)[C@H](C(C)C)NC(=O)[C@H](CCCCN)NC(=O)[C@@H](Cc2ccccc2)NC1=O`, the MIC in the data set on Escherichia coli [6] worked out at 25 µg/mL (≈ 20.8 µM); against Pseudomonas aeruginosa [7], 50 µg/mL (≈ 41.5 µM); against Bacillus subtilis it was 6.25 µg/mL (≈ 5.19 µM); against Staphylococcus aureus [8] it was 3.13 µg/mL (≈ 2.6 µM); in the data set with Priestia megaterium, 3.13 µg/mL (≈ 2.6 µM). For the same molecule, the concentration for 50% haemolysis (HC50) at 0.5 h in [9] was greater than 200 µg/mL.
On to `CC(C)C[C@@H]1NC(=O)[C@H](CCCN)NC(=O)[C@H](C(C)C)NC(=O)[C@@H]2C[C@@H](N)CN2C(=O)[C@@H](Cc2ccccc2)NC(=O)[C@H](CC(C)C)NC(=O)[C@H](CCCN)NC(=O)[C@H](C(C)C)NC(=O)[C@@H]2C[C@@H](N)CN2C(=O)[C@@H](Cc2ccccc2)NC1=O` [listing 2 of 2 here], for which the HC50 at 0.5 h in data set [12] is 50 to 100 µg/mL.
For `CC(C)C[C@@H]1NC(=O)[C@H](CCCCN)NC(=O)[C@H](C(C)C)NC(=O)[C@@H]2CCCN2C(=O)[C@@H](Cc2ccc(O)cc2)NC(=O)[C@H](CC(C)C)NC(=O)[C@H](CCCCN)NC(=O)[C@H](C(C)C)NC(=O)[C@H](CCCCN)NC(=O)[C@H](CC(C)C)NC(=O)[C@@H]2CCCN2C(=O)[C@@H](Cc2ccc(O)cc2)NC(=O)[C@H](C(C)C)NC(=O)[C@H](CCCCN)NC1=O` (cyclo(KLKV[dY]PLKVKL[dY]PV)), the minimum inhibitory concentration (MIC) against Escherichia coli [13] was greater than 200 µg/mL; with Pseudomonas aeruginosa [14] it was greater than 200 µg/mL; in the data set with Enterococcus faecalis [15] it was 2.3 µg/mL (≈ 1.38 µM); against Staphylococcus aureus [16], greater than 200 µg/mL; against Candida albicans, 175 µg/mL (≈ 105 µM). The molecule further yielded an HD100 in the data set with Erythrocyte of 1.5 µg/mL. In addition, the IC50 at Lipopolysaccharide (LPS) came to 3000 nM. Also, the selectivity ratio was less than 0.01 in [17], less than 0.01 in data set [18], 0.7 in data set [19] and less than 0.01 in data set [20].
Turning to `CC(C)C[C@@H]1NC(=O)[C@H](CCCN)NC(=O)[C@H](C(C)C)NC(=O)[C@@H]2C[C@@H](N[C@@H](CCCCN)C(=O)O)CN2C(=O)[C@@H](Cc2ccccc2)NC(=O)[C@H](CC(C)C)NC(=O)[C@H](CCCN)NC(=O)[C@H](C(C)C)NC(=O)[C@@H]2C[C@@H](N[C@@H](CCCCN)C(=O)O)CN2C(=O)[C@@H](Cc2ccccc2)NC1=O`, the minimum inhibitory concentration (MIC) with Escherichia coli [10] came out at 16 µg/mL (≈ 11.2 µM); with Staphylococcus aureus [11], 8 µg/mL (≈ 5.6 µM).

The MIC is the lowest concentration that inhibits growth of the organism. Low readings indicate a more susceptible organism, high ones a less susceptible organism. In general, HC50 refers to the concentration giving 50% haemolysis. Low readings indicate more damage to red cells, high ones less damage to red cells.
